This note sets out measurements from patent US10941137B2, “Difluoromethyl-phenyl triazoles” (Boehringer Ingelheim International GmbH, priority 2018, dated 2021).

In series [1] the target is T1, human GABAA α5β3γ2s receptor (Homo sapiens, UniProt P18507+P31644).
T1 sequence (P18507 1-475): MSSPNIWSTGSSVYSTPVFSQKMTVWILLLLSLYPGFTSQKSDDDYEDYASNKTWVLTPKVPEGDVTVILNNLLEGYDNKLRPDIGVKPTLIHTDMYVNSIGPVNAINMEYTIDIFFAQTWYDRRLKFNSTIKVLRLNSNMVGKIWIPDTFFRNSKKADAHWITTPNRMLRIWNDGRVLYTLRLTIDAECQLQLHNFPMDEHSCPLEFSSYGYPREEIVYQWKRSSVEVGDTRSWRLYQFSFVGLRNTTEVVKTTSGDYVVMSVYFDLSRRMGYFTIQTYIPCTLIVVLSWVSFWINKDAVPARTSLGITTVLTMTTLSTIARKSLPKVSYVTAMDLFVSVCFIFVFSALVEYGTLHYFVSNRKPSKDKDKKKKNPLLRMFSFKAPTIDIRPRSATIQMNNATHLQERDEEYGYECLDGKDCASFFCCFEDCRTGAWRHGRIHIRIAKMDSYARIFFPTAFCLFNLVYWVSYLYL
T1 sequence (P31644 1-462): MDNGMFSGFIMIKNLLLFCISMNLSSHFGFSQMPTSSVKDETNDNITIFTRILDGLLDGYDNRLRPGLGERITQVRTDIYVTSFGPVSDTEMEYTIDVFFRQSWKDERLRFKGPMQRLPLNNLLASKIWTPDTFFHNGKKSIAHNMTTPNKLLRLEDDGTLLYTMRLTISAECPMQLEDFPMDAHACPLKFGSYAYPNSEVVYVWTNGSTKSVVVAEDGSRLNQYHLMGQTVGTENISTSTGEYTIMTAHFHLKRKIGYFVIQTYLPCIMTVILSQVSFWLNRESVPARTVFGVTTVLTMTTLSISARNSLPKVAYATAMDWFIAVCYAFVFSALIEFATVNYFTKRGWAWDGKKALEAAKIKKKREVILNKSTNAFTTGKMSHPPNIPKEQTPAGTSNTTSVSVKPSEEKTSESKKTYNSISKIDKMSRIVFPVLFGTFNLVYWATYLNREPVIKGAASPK
Description: Assay A: in vitro inhibition of 3H-flumazenil binding, HEK cells expressing human GABAA α5β3γ2s receptor. The conditions noted are these: 3H-flumazenil 1 nM, HEK-293 membranes, 40 min at 2° C.; Ki from IC50 by Cheng and Prusoff. Here is the method: HEK-293 cell lines with stable expression of recombinant human GABAA α5β3γ2s receptors (plasmid H46/E9/B10) are seeded in T175 polystyrene flasks or roller bottles (1700 cm^2, Fisher Scientific CCI-431191), and cultured (37 C, 5% CO˜) in Dulbecco's Modified Eagle Medium (DMEM) with GlutaMAX™ supplemented with 10% fetal bovine serum and one or both of the following antibiotics: hygromycin B ([…]; γ2 subunit) or G418 (0.5 mg/ml; […]).
When the cultures reach confluency, the DMEM is removed and the cells are washed (10 ml for T175 flasks; 50 ml for roller bottles) once in Dulbecco's Phosphate Buffered Saline (DPBS). Following addition of DPBS to the cultures (10 ml for T175 flasks; 100 ml for roller bottles) for approximately 5 min cells are easily detached from the surface by shaking or tapping the flask gently. The cell suspension is transferred to Falcon tubes and centrifuged at 23,500×g for 10 min at 2° C. The pellet is washed once in 15 ml Tris-citrate buffer (50 mM, pH 7.1) using an Ultra-Turrax homogenizer and centrifuged at 2° C. for 10 min at 27,000×g. The washed pellet is re-suspended in 15 ml Tris-citrate buffer and frozen at −80° C. until the day of the binding experiment.
On the day of the experiment the cell membrane preparation is thawed and centrifuged at 2° C. for 10 min at 27,000×g. The pellet is re-suspended, using an Ultra-Turrax homogenizer in Tris-citrate buffer, to 15-50 µg protein per assay and then used for binding assays.
Non-specific binding is determined using clonazepam (1 μM, final concentration).
All dilutions of test compounds and incubation of assay are performed in glass vials/96-vial plates. […] Compounds are dissolved in 100% DMSO (10 mM stock), diluted in 48% ethanol-water, and tested in triplicate in serial 1:3 or 1:10 dilutions. When screening large numbers of compounds only one concentration of each compound is tested in single wells. Reference compounds are not included routinely, but for each experiment performed total and nonspecific binding is compared to data obtained during validation of the assay.
Binding is either terminated by rapid filtration onto
1) Whatman GF/C glass fibre filters using a Brandel Cell harvester, followed by 5 washes with 1 ml ice-cold buffer or onto 2) UniFilter GF/C glass fibre filter plates using a Tomtec cell harvester, followed by washing with approximately 5 ml ice-cold buffer.
The amount of radioactivity on the filters is determined by conventional liquid scintillation counting using a
1) Tri-Garb™ counter (PerkinElmer Life and Analytical Sciences) for separate large filters or
2) Topcount™ counter (PerkinElmer Life and Analytical Sciences) for 96-well filter plates. Specific binding is total binding minus non-specific binding.
For screening purposes n is set to 1. The IC50 value is calculated from the concentration response curves by the non-linear regression method using the curve-fitting program GraphPad Prism. […]

Series [2] can be described thus: Metabolic stability in human liver microsomes (Human MST). Format: in vitro ADME. The conditions noted are these: pooled human liver microsomes, pH 7.6; human liver microsomes 1 mg/mL, 1 μM compound, NADPH 1 mM, 37° C.; read-out: Human MST t1/2. The protocol: Assessment of Metabolic Stability in Human Liver Microsomes (Human MST) The metabolic stability of the compounds according to the invention may be investigated as follows: The metabolic degradation of the test compound is assayed at 37° C. with pooled human liver microsomes. The final incubation volume of 100 μL per time point contains TRIS buffer pH 7.6 at room temperature (0.1 M), MgCl2 (5 mM), microsomal protein (1 mg/mL) and the test compound at a final concentration of 1 μM. Following a short pre-incubation period at 37° C., the reactions are initiated by addition of beta-nicotinamide adenine dinucleotide phosphate, reduced form (NADPH, 1 mM), and terminated by transferring an aliquot into solvent after different time points. After centrifugation (10000 g, 5 min), an aliquot of the supernatant is assayed by LCMS/MS for the amount of parent compound. The half-life (t½) is determined by the slope of the semi-logarithmic plot of the concentration-time profile.
In general terms: Liver microsomes are a subcellular fraction often used to study metabolism.

In series [3] the target is T2, α5β2γ2 GABAA receptor (Homo sapiens, UniProt P18507+P31644).
T2 sequence (P31644 32-462): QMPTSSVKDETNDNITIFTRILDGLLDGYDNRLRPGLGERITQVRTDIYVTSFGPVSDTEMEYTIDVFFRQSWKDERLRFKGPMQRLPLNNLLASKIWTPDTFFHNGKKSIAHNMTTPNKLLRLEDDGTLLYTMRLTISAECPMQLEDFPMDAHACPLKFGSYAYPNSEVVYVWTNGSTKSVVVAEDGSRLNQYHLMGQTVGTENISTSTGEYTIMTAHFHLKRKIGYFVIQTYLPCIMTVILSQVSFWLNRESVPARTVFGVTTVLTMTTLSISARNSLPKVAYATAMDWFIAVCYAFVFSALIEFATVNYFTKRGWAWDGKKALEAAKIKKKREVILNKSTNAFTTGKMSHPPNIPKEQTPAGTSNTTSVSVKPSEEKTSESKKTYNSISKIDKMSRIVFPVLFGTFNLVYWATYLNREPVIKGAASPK
T2 sequence (P18507 40-376 limits assumed): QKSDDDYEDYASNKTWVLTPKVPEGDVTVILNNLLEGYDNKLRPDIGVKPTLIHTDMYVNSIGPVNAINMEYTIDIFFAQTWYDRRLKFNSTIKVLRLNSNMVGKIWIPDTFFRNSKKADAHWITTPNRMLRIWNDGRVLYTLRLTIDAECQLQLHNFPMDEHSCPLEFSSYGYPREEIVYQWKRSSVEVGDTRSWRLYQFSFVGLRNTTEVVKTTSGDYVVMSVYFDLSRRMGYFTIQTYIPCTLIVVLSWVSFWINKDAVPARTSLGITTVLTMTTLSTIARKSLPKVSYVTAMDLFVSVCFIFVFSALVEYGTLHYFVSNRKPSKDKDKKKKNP
The series is described as follows: Assay B: modulation of α5β2γ2 GABAA receptor, two-electrode voltage clamp in oocytes. Format: cell-based. The protocol:
Assay B: In vitro evaluation of modulation of α5β2γ2 GABAA receptor.
Modulatory efficacy of compounds of formula (I) is determined electrophysiological recordings in oocytes using the two-electrode voltage clamp (TEVC) technique. Oocytes are injected with cRNA for human GABAA receptor subunits α5, β2 and γ2 in a 3:1:3 ratio and modulatory efficacy is evaluated by co-applications with a submaximal EC5-20 GABA concentration (0.5 μM) termed GABA control. As a standard, the compounds are tested in five concentrations (3.16, 0.316, 0.0316, 0.00316 and 0.000316 μM) on each oocyte starting with the lowest concentration. Background subtracted peak current amplitudes are normalized to the respective GABA control current, converted to % change and depicted +/−S.E.M. as a function of increasing compound concentrations. Plotted datapoints are fitted to the empirical Hill equation using non-linear regression. 95% confidence intervals for maximal efficacy (Bottom) and potency (Log EC50) are derived from this fitting routine.

Molecules are shown by their SMILES.

For the molecule `Cc1nnn(-c2ccc(C(F)F)cc2)c1COc1ccc(-n2cnc(C(=O)N(C)C)c2)nn1` [Example 16], in series [1], the Ki – broadly, the dissociation constant of the complex between target and ligand, obtained from inhibition or displacement – came out at 0.16 nM. Further, in series [2], the half-life at 1 μM was more than 2.17 h. The molecule also yielded an Assay B: GABAA α5β3γ2 Emax vs GABA in series [3] of 0%.
